Experimental data published in PMC7770833, “Design, Synthesis, and Biological Evaluation of a Series of Oxazolone Carboxamides as a Novel Class of Acid Ceramidase Inhibitors” (Journal of Medicinal Chemistry, 2020).

How the values were obtained:
hAC = molecular target: T1, hAC (Homo sapiens, UniProt Q13510); experiment: hAC LC/MS-based activity assay in SH-SY5Y cells; type: cell-based; design: host or cells: SH-SY5Y human neuroblastoma cells; conditions: 1, 2.5, 5, 10 μM for 3 h; 10 μM for 1, 3, 6 h
T1 sequence (Q13510 22-395): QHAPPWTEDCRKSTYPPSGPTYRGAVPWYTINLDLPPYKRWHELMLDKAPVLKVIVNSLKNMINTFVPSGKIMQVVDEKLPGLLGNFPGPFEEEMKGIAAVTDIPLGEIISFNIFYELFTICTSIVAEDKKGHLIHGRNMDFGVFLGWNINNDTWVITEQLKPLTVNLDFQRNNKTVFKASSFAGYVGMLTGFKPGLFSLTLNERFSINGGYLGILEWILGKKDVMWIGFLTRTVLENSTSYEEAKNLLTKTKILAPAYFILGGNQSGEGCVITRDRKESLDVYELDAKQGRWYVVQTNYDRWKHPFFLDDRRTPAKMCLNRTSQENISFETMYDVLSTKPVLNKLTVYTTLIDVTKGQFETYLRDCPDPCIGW
Method: SH-SY5Y cells were purchased from Sigma Aldrich (Italy) and cultured in DMEM containing 10% FBS at 37 °C and 5% CO2. Drugs were dissolved in DMSO (10 mM) and diluted in cell culture medium with reduced serum (1%) for cell treatments.
hAC activity measurement was performed as previously described.[59],[61] Total lysates from cells were diluted in assay buffer (100 mM sodium phosphate, 0.1% Nonidet P-40, 150 mM NaCl, 3 mM DTT, 100 mM sodium citrate, pH 4.5). Reactions were started by the addition of 50 μM N-lauroyl ceramide (Nu-Chek Prep, Elysian, MN) and carried out for 1 h at 37 °C. Reactions were stopped by the addition of a mixture of CHCl3/MeOH (2:1) spike with 11-lauroleic acid (1.0 nmol, NuChek Prep). The organic phases were collected, dried under N2, and analyzed by UPLC/MS (Acquity, Waters) in the negative-ion mode monitoring the reaction product (lauric acid, m/z: 199) using 11-lauroleic acid as the internal standard. Lipids were eluted on an Acquity UPLC BEH C18 column (50 mm length, 2.1 mm ID, 1.7 μm pore size, Waters) column at 0.5 mL/min for 1.5 min with a gradient of CH3CN and H2O, both containing 0.25% AcOH and 5 mM NH4OAc (70–100% CH3CN in 0.5 min, 100% CH3CN for 0.5 min, 70% CH3CN for 0.4 min). The column temperature was 40 °C. […] The [M – H]^− ion was monitored in the selected-ion monitoring mode (m/z values: lauric acid 199, 11-lauroleic acid 197.35). […]

[1] = molecular target: T2, human N-acylethanolamine acid amidase (hNAAA) (Homo sapiens, UniProt Q02083); experiment: Fluorogenic hNAAA assay; type: biochemical; conditions: at up to 125 μM
T2 construct: expressed in transfected cells; lysosome-enriched lysate
T2 sequence (Q02083 29-359): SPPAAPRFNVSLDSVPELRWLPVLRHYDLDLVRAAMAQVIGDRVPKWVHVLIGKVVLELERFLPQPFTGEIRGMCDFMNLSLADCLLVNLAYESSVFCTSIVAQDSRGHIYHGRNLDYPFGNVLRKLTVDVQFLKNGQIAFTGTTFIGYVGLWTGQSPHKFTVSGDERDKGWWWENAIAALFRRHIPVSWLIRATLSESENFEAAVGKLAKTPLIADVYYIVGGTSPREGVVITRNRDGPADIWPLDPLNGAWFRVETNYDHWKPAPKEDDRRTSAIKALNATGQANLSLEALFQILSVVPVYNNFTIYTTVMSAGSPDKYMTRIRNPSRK
Method: HEK-293 cells stably transfected with the hNAAA coding sequence cloned from a human spleen cDNA library (catalog no. 639124, Clontech, Mountain View, CA, USA) were used as the enzyme source. Cells were grown in DMEM containing 10% FBS, 1% glutamine, 1 mM sodium pyruvate, and 500 μg/mL G418. Cells were harvested and pellets were stored at −80 °C until lysosomal-enriched lysate preparation. Cells were suspended in 20 mM Tris HCl (pH 7.4) with 0.32 M sucrose, sonicated, and centrifuged at 800 × g for 30 min at 4 °C. Supernatants were then ultracentrifuged at 12 000 × g for 30 min at 4 °C. Pellets were re-suspended in PBS buffer (pH 7.4) and subjected to three freeze–thaw cycles at −80 °C. The suspension was finally ultracentrifuged at 105 000 × g for 1 h at 4 °C, supernatants were collected, protein concentration was measured, and samples aliquoted and stored at −80 °C until use.
The assay was run in 96-well microplates (Black OptiPlate-96 F; PerkinElmer, Massachusetts, USA) in a total reaction volume of 200 μL. hNAAA protein preparation (4.0 μg) was pre-incubated for 30 min with various concentrations of test compounds or vehicle control (DMSO 5%) in 100 mM citrate/phosphate buffer (pH 4.5) containing 3.0 mM dithiothreitol (DTT), 0.1% NP40 0.1%, 0.05% bovine serum albumin, and 150 mM NaCl. […]

hAC activity in SH-SY5Y cells (hAC): time-dependent reduction | effect against hNAAA [1]: no effect
Compound: CCCCCNC(=O)n1cc(-c2ccc(F)cc2C2CCN(C)CC2)oc1=O [Compound 32b, 5-[4-Fluoro-2-(1-methyl-4-piperidyl)phenyl]-2-oxo-N-pentyl-oxazole-3-carboxamide]
